Test results published in US20130143929A1, “FUNGICIDAL IMIDAZOLES” (EI DU PONT DE NEMOURS AND COMPANY, priority 2010, published 2013).
Marks after values point to notes of the source that are not given here.

Assays:
Format in all cases: in vivo
[1] = test system: Puccinia recondite f. sp. tritici (the causal agent of wheat leaf rust); assay: Test A: wheat leaf rust, preventive spray on wheat seedlings, visual disease rating; details: wheat leaf rust, preventive spray on wheat seedlings
Method in brief: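 Wheat seedlings were sprayed to run-off with compound suspended in acetone/water containing 250 ppm Trem 014 (200 ppm ≈ 800 g/ha; some at 40 ppm). Puccinia recondite spores were inoculated the next day. Plants were held 24 h saturated at 20° C, then 7 days at 20° C, and disease control was rated visually on a 0–100 scale against controls.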

[2] = test system: Septoria tritici (the causal agent of wheat leaf blotch); assay: Test B: wheat leaf blotch, preventive spray on wheat seedlings, visual disease rating; details: wheat leaf blotch, preventive spray on wheat seedlings
Method in brief: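 Wheat seedlings sprayed to run-off with compound suspension (acetone/water with 250 ppm Trem 014; 200 ppm ≈ 800 g/ha, some at 40 ppm), inoculated next day with Septoria tritici spores. 48 h saturated humidity at 24 °C, then 19 days at 20 °C; visual rating, 100 = full control.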

[3] = test system: Blumeria graminis f. sp. tritici (also known as Erysiphe graminis f. sp. tritici, the causal agent of wheat powdery mildew); assay: Test D: wheat powdery mildew, preventive spray on wheat seedlings, visual disease rating; details: wheat powdery mildew, preventive spray on wheat seedlings
Method in brief: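 Compound suspended in acetone/water (50/50) with 250 ppm Trem 014 and sprayed to run-off on wheat seedlings (200 ppm ≈ 800 g/ha), then inoculated next day with spore dust. Disease rated visually after 8 days at 20 °C as % control relative to untreated plants (0-100).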

[4] = test system: Botrytis cinerea (the causal agent of tomato Botrytis); assay: Test C: tomato Botrytis, preventive spray on tomato seedlings, visual disease rating; details: tomato Botrytis, preventive spray on tomato seedlings
Method in brief: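 Test suspension (acetone/water with 250 ppm Trem 014; 200 ppm equivalent to 800 g/ha) sprayed to run-off on tomato seedlings; B. cinerea spores inoculated next day. After 48 h saturated humidity at 20° C then 3 days at 24° C, disease rated visually as % control relative to untreated controls (0–100).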

[5] = no asterisk (standard test suspension concentration, not 40 ppm)
[6] = asterisk: 40 ppm test suspension

Row | SMILES | Test A rating (100 = 100% disease control, 0 = no disease control relative to the controls) [1, 5] [%] | Test B rating (100 = 100% disease control, 0 = no disease control relative to the controls) [2, 5] [%] | Test D rating (100 = 100% disease control, 0 = no disease control relative to the controls) [3, 5] [%] | Test C rating (100 = 100% disease control, 0 = no disease control relative to the controls) [4, 5] [%] | Test A rating (100 = 100% disease control, 0 = no disease control relative to the controls) [1, 6] | Test B rating (100 = 100% disease control, 0 = no disease control relative to the controls) [2, 6] | Test D rating (100 = 100% disease control, 0 = no disease control relative to the controls) [3, 6] | Test C rating (100 = 100% disease control, 0 = no disease control relative to the controls) [4, 6]
1 | Cc1nc(Br)c(C(O)c2ccc(F)cc2Cl)n1-c1c(F)cccc1Br (stereo not shown) [compound 134] | 100 | 100 | 98 | 100 |  |  |  | 
2 | Cc1nc(Br)c(C(O)c2ccc(F)cc2Cl)n1-c1c(F)cc(F)cc1Br (stereo not shown) [compound 136] | 100 | 100 | 79 | 100 |  |  |  | 
3 | Cc1nc(Cl)c(C(O)c2ccc(F)cc2Cl)n1-c1c(F)cc(F)cc1Br (stereo not shown) [compound 137] |  |  |  |  | 100* % | 100* % | 87* % | 100* %
4 | Cc1cc(F)ccc1C(O)c1cnc(C)n1-c1ccc(F)cc1Br (stereo not shown) [compound 138] | 89 | 28 | 0 | 0 |  |  |  | 
5 | Cc1ncc(C(O)c2ccc(Cl)cc2)n1-c1ccc(F)cc1Br (stereo not shown) [compound 139] | 86 | 49 | 0 | 0 |  |  |  | 
6 | Cc1nc(Br)c(C(O)c2c(F)cccc2F)n1-c1ccc(F)cc1Cl (stereo not shown) [compound 140] | 100 | 100 | 50 | 100 |  |  |  | 
7 | Cc1nc(Br)c(C(O)c2c(F)cc(F)cc2F)n1-c1ccc(F)cc1Cl (stereo not shown) [compound 141] | 100 | 100 | 96 | 99 |  |  |  | 
8 | Cc1nc(Br)c(C(O)c2ccc(F)cc2Cl)n1-c1ccc(F)cc1Cl (stereo not shown) [compound 142] | 100 | 100 | 71 | 99 |  |  |  | 
9 | COc1ccc(C(O)c2c(Cl)nc(C)n2-c2c(F)cccc2F)c(Cl)c1 (stereo not shown) [compound 143] |  |  |  |  | 100* % | 100* % | 99* % | 99* %
10 | COc1ccc(C(O)c2c(Br)nc(C)n2-c2c(F)cccc2F)c(Cl)c1 (stereo not shown) [compound 144] |  |  |  |  | 100* % | 100* % | 99* % | 100* %
11 | Cc1ccc(C(O)c2c(Br)nc(C)n2-c2c(F)cccc2F)c(C)c1 (stereo not shown) [compound 145] |  |  |  |  | 100* % | 100* % | 98* % | 51* %
12 | COc1cc(F)c(C(O)c2c(Br)nc(C)n2-c2c(F)cccc2F)c(F)c1 (stereo not shown) [compound 147] |  |  |  |  | 100* % | 100* % | 0* % | 99* %
13 | OC(c1ccc(F)cc1Cl)c1c(Br)nc(C2CC2)n1-c1c(F)cccc1Br (stereo not shown) [compound 150] | 85 | 100 | 27 | 0 |  |  |  | 
